Assay results from ChEMBL document CHEMBL5728011, “Bicyclic heterocyclic compound” (2020).
pIC50: −log10 of the molar value.

target: Kynurenine/alpha-aminoadipate aminotransferase, mitochondrial (Homo sapiens, UniProt Q8N5Z0); assay: Inhibitory Assay: To a reaction mixture (45 μL) containing 3.0 μmol/L kynurenine, 10 μmol/L pyridoxal phosphate, 2.0 ng/μL human recombinant KAT-II, and 150 mmol/L tris(hydroxymethyl)aminomethane-acetate buffer (pH 8.0) was added a 10% dimethyl sulfoxide solution (5 μL) of each test compound prepared, and the mixture was reacted at 37° C. for 1 hr. After the reaction, 50% trichloroacetic acid (5 μL) was added to terminate the reaction.The resultant kynurenic acid was quantified as follows by high performance liquid chromatography. An enzyme reaction mixture was separated by an octadecylsilane reversed-phase column (SC-50DS, Eicom Corporation; mobile phase: 250 mmol/L zinc acetate, 50 mmol/L sodium acetate, and 5.0% acetonitrile (pH 6.2)) incubated at 30° C., and kynurenic acid was quantified using a fluorescence detector (RF-20Axs, Shimadzu Corporation) at excitation wavelength 354 nm, detection wavelength 460 nm. The analytical curve was drawn every time by an external standard method. Each test compound was tested by dual measurement at each concentration. The kynurenic acid level in the presence of a test compound at each concentration was converted into % relative to kynurenic acid resulting from a reaction with an enzyme alone as 100%, and the obtained values were fitted to S-curve to determine IC50.
Sequence (Q8N5Z0 whole entry): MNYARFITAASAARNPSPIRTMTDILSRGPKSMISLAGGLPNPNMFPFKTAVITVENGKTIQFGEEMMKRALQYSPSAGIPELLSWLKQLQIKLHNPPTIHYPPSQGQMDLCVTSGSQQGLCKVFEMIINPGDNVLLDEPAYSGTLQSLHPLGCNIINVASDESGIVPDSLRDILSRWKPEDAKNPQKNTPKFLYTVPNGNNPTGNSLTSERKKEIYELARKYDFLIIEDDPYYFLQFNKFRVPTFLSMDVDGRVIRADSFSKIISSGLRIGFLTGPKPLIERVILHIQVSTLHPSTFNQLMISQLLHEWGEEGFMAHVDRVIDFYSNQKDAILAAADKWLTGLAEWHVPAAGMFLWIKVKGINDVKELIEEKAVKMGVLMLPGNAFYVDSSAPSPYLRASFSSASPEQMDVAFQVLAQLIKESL

| SMILES | pIC50 |
| --- | --- |
| O=C(NCc1ccccc1)[C@H]1CCCN1c1nc2ncnc(N3CCOCC3)c2s1 | 7.33 |
| CN(C)c1nc(C(F)(F)F)nc2nc(N3CCC[C@@H]3C(=O)NCc3ccccc3)sc12 | 7.57 |
| CC1(C)CN(c2ncnc3nc(N4CCC[C@@H]4C(=O)NCc4ccccc4)sc23)CCO1 | 7.15 |
| Cc1nc(N(C)C)c2sc(N3CCC[C@@H]3C(=O)NCc3ccccc3)nc2n1 | 7.30 |

The next lines start with the values.

| pIC50 | SMILES |
| --- | --- |
| 7.46 | CON(C)c1ncnc2nc(N3CCC[C@@H]3C(=O)NCc3ccccc3)sc12 |
| 7.19 | COCCc1nc(N(C)C)c2sc(N3CCC[C@@H]3C(=O)NCc3ccccc3)nc2n1 |
| 7.09 | COCc1nc(N(C)C)c2sc(N3CCC[C@@H]3C(=O)NCc3ccccc3)nc2n1 |
| 6.85 | COCCOc1ncnc2nc(N3CCC[C@@H]3C(=O)NCc3ccccc3)sc12 |
